# Data taken from ChEMBL document CHEMBL3046543, “Larvicidal and adulticidal activity of alkylphthalide derivatives from rhizome of Cnidium officinale against Drosophila melanogaster” (J Agric Food Chem, 2005).
# Assays:
# Format in all cases: functional
# [1] = system: Drosophila melanogaster; assay: Relative toxicity, LC50 for rotenone Drosophila melanogaster larvicidal activity to LC50 for compound Drosophila melanogaster larvicidal activity
# [2] = system: Drosophila melanogaster; assay: Insecticidal activity against Drosophila melanogaster larvae assessed as mortality compound treated in diet at 25 degC and >90% RH treated for 8 days; settings: feed or water, 192 h
# [3] = system: Drosophila melanogaster; assay: Relative toxicity, LD50 for rotenone Drosophila melanogaster adulticidal activity to LD50 for compound Drosophila melanogaster adulticidal activity
# [4] = system: Drosophila melanogaster; assay: Insecticidal activity against 5 to 7 days old adult Drosophila melanogaster assessed as mortality measured as inability to move compound treated in diet at 25 degC and >90% RH treated for 8 days
SMILES,RatioLC50 [1],LC50 [2] [mM],Ratio [3],LD50 [4] [µg]
CCC/C=C1\OC(=O)C2=C1CCC=C2 [LIGUSTILIDE],0.009,2.54,<0.07,>50
CCCC[C@@H]1OC(=O)C2=CCCC[C@H]21 [NEOCNIDILIDE],0.002,9.9,0.34,10.82
CCCC[C@@H]1OC(=O)c2ccccc21 [(3S)-BUTYLPHTHALIDE],0.004,4.99,0.62,5.93
C=C(C)[C@H]1Cc2c(ccc3c2O[C@@H]2COc4cc(OC)c(OC)cc4[C@@H]2C3=O)O1 [ROTENONE],1,0.02,1,3.68
CCCC[C@@H]1OC(=O)[C@@H]2C=CCC[C@H]12 [CNIDILIDE],<0.001,> 16,0.4,9.17
